The values below come from the NIST ThermoML archive (doi:10.1016/j.tca.2015.10.015).

For series [1] the following is noted: Crystal; DTA.
The nature of series [2]: Molar enthalpy of transition or fusion. The conditions noted are these: Crystal; DSC.

Numbers after ± are expanded uncertainties.

`CCCCCCCCCCCCOC(=O)CCC(=O)O` [butanedioic acid, monododecyl ester]: in series [1], the Normal melting temperature came to 45.80 ± 2.1 °C. Besides, the “Molar enthalpy of transition or fusion” value in series [2] was determined as 53.1 ± 1.4 kJ/mol.

Turning to `CCCCCCCCCCCCCCCCCCCCCCOC(=O)/C=C\C(=O)O` [maleic acid monodocosyl ester], the Normal melting temperature in series [1] came to 82.00 ± 5 °C. Further, the “Molar enthalpy of transition or fusion” value in series [2] came out at 87.1 ± 2.3 kJ/mol.

In the case of `CCCCCCCCCCCCOC(=O)/C=C\C(=O)O` [maleic acid monododecyl ester], the Normal melting temperature in series [1] came to 51.30 ± 4 °C. Also, the “Molar enthalpy of transition or fusion” value in series [2] came out at 52 ± 1.4 kJ/mol.

`CCCCCCCCCCCCCCCCOC(=O)/C=C\C(=O)O` [maleic acid monohexadecyl ester]: the Normal melting temperature in series [1] came to 71.80 ± 3 °C. Further, in series [2], the “Molar enthalpy of transition or fusion” value came to 71.4 ± 1.9 kJ/mol.

Turning to `CCCCCCCCOC(=O)/C=C\C(=O)O` [maleic acid monooctyl ester], the Normal melting temperature in series [1] came out at 31.10 ± 3 °C. Moreover, in series [2], the “Molar enthalpy of transition or fusion” value was 33.2 ± 0.9 kJ/mol.

Take `CCCCCCCCCCCCCCCCCCCCCCOC(=O)CCC(=O)O` [succinic acid monodocosyl ester]: the Normal melting temperature in series [1] came out at 73.60 ± 1.1 °C. In series [2], the “Molar enthalpy of transition or fusion” value was determined as 93 ± 2.4 kJ/mol.

`CCCCCCCCCCCCCCCCOC(=O)CCC(=O)O` [succinic acid monohexadecyl ester]: the Normal melting temperature in series [1] was found to be 64.20 ± 1.1 °C. In addition, in series [2], the “Molar enthalpy of transition or fusion” value turned out to be 66.1 ± 1.8 kJ/mol.

`CCCCCCCCOC(=O)CCC(=O)O` [succinic acid monooctyl ester]: in series [1], the Normal melting temperature is 36.50 ± 1.1 °C. In addition, the “Molar enthalpy of transition or fusion” value in series [2] is 41.8 ± 1.1 kJ/mol.
